# Entries after “also recorded” stand apart in the source; their conditions may differ. Peptide text beside a SMILES is read from it. * marks the point of attachment. Cbz = O=C(OCc1ccccc1)*
# Columns and labels:
# [1] = system: human brain endothelial cells; assay: viability of human brain endothelial cells (LDH activity in culture medium); type: cell-based; settings: 24 hours; for cellular toxicity / viability of human brain endothelial cells versus control: doses employed; for LDH activity in the culture medium, ANOVA main effect: various doses
# Procedure: (§1) Primary cultures of human brain endothelial cells were plated at a density of 10^4 cells/[…] of EBM 4% in 96 wells culture plates and treated with various doses of γ-secretase and β-secretase inhibitors as indicated in the figure legends. Following 24 hours in culture, the EBM covering the cells was removed and assayed for Lacticodehydrogenase (LDH) activity using the cytotoxicity detection kit (Roche Diagnostic Corporation, Ind.). Cells were covered with […] of EBM 4% and cellular proliferation measured using the Quick cell proliferation assay kit (Biovision Research Products, Calif.).
# [2] = system: human brain endothelial cells; assay: proliferation of human brain endothelial cells (Quick cell proliferation assay kit); type: cell-based; settings: various doses, 24 hours
# Procedure: as §1
# explants of rat aortae = assay: rat aortic ring model of angiogenesis (microvessel outgrowths); type: cell-based, Sprague Dawley rats; settings: for sprouting of microvessel outgrowths, overall / dose dependence: day 4, 5 and 6
# Procedure: Twenty four well tissue culture grade plates (Nalgene International, NY) were covered with […] of Matrigel (Becton-Dickinson, Bedford, Mass.) and allowed to gel for 30 min at 37° C., 5% CO2. Briefly, thoracic aortae were excised from 9 month-old Sprague Dawley rats. After removing the fibroadipose tissue, arteries were sectioned into 1 mm long cross sections, rinsed 5 times with EBM (Clonetics Corp.) containing 4% fetal bovine serum (FBS) and placed on the Matrigel coated wells. Artery rings were covered with an additional […] of Matrigel. After polymerization the Matrigel was covered with 1 mL of EBM (4% FBS) containing various doses of Z-VVL-CHO, OM99-2, P10-P4′statV, DAPT, or L-685,458 as indicated in the figure legends (the culture medium was changed every 3 days). Pictures were taken at day 4, 5 and 6 using a 4×objective. Microvessel outgrowth area was quantified using the Image Pro Plus software. Briefly, ring cultures were photographed using a digital video camera linked to an Olympus BX60 microscope. The outgrowth area was delineated and measured with the Image Pro Plus software by using a strategy of microvessel outgrowth detection based on difference in color intensities between the outgrowths, the Matrigel and the artery ring. The artery rings were manually selected and excluded from the area of measurement and the color intensity threshold was adjusted to selectively measure the area occupied by the microvessel outgrowths. Results were expressed as a percentage of the area occupied by microvessel outgrowths at day 4 in control condition.
# [3] = system: human glioblastoma (U-87 MG) xenografts; assay: human glioblastoma U-87 MG xenografts in nude mice; type: in vivo; settings: Z-VLL-CHO 5 mg/Kg; for vascularization (vascular index) of U-87 MG tumors versus vehicle: DAPT 10 mg/Kg intraperitoneally, CD31/PECAM-1 immunostaining; for growth (tumor volume) of U-87 MG xenografts versus vehicle: intraperitoneally everyday for 9 days, DAPT 10 mg/Kg
# Procedure: FIG. 8a: Anti-tumoral effect of the γ-secretase inhibitor DAPT and of the β-secretase inhibitor Z-VLL-CHO on human glioblastoma (U-87 MG) xenografts growth rates. U-87 MG cells (6×10^6) were injected subcutaneously into both flanks of 8-10 weeks-old nude mice. Mice were injected intraperitoneally with either the vehicle, 5 mg/Kg of body weight of the β-secretase inhibitor Z-VLL-CHO or 10 mg/Kg of body weight of the γ-secretase inhibitor DAPT, starting when tumors had reached a mean tumor volume of approximately 140 mm^3 (day 8 post implantation). Injections were given everyday for 9 days. […] FIG. 8b: Representative pictures of sections of glioblastoma tumors immunostained with CD31 antibodies. FIG. 8c: Histogram depicting the estimation of glioblastoma tumor vascularization.
# The human glioblastoma U-87 MG and human lung adenocarcinoma A-549 cell lines were obtained from American Tissue Culture Type Collection (Manassas, Va.) and were grown in DMEM containing 1×penicilline-streptomycine-fungizone and 10% fetal bovine serum at 37° C. in a humidified atmosphere of 5% CO2. Tumor cells (6×106) in 100 μl of PBS were inoculated subcutaneously into both flanks of 8-10-week-old female nude mice (Harland). Tumor volume (in mm^3) was determined using the formula (length×width^2)/2, where length was the longest axis and width the measurement at right angles to the length (Clarke et al. 2000). When the tumor volumes reached approximately 150 mm^3, animals were treated intraperitoneally everyday with 100 μl of 50% DMSO/H2O (vehicle group), 5 mg/Kg of body weight of Z-VLL-CHO (β-secretase inhibitor), 5 mg/Kg of JLK-6 (γ-secretase inhibitor) or with 10 mg/Kg of body weight of DAPT. Data were expressed as mean tumor volume±S.E for each treatment group.
# At the completion of the study, animals were humanely euthanized and tumors were harvested and fixed in paraformaldehyde 4% overnight at 4° C. After paraffin embedding in an automated tissue processing Sakura Tissue-Tek (E150) (Torrence, Calif.), samples were cut into 5 μm sections, deparafinized, and rehydrated through a graded series of alcohol. Sections were treated with 0.02 mg/ml Proteinase K (Gentra Systems, MN) for 15 minutes at 37° C. to allow for proper antigen retrieval, washed several times in PBS and incubated for 15 minutes in a 0.3% solution of hydrogen peroxide. […] Quantification of tumor vascularization was performed using the stereological dissector method. […] Microvessels were counted in the dissector frame by an experimenter unaware of the different treatment conditions. For each tumor an average vessel count per area of dissector frame was determined. A vascular index was calculated by expressing the vessel count as a percentage of the vessel count in the vehicle treatment condition.
# [4] = system: U-87 MG brain tumor cells; assay: proliferation of U-87 MG brain tumor cells; type: cell-based, human
SMILES,cellular toxicity / viability of human brain endothelial cells versus control [1],"LDH activity in the culture medium, ANOVA main effect [1]","proliferation of human brain endothelial cells, dose dependence [2]","sprouting of microvessel outgrowths, overall / dose dependence (explants of rat aortae)","sprouting of microvessel outgrowths, overall / dose dependence (explants of rat aortae; listed as Z-VVL-CHO)",vascularization (vascular index) of U-87 MG tumors versus vehicle [3],growth (tumor volume) of U-87 MG xenografts versus vehicle [3],proliferation of U-87 MG brain tumor cells [4],tumoricidal activity [4],area covered by microvessel outgrowths versus control (explants of rat aortae; 5 μM),area covered by microvessel outgrowths versus control (explants of rat aortae; 10 μM),area covered by microvessel outgrowths versus control (explants of rat aortae; 20 μM)
"CC(C)C[C@@H](C=O)NC(=O)[C@H](CC(C)C)NC(=O)[C@@H](NC(=O)OCc1ccccc1)C(C)C [Z-VLL-CHO, N-benzyloxycarbony-val-leu-leucinal] (Cbz-Val-Leu-Leu-aldehyde)",without affecting their viability,significant main effect,dose dependently inhibited,profoundly anti-angiogenic; also recorded: dose dependently and potently inhibited,dose-dependently inhibits,decreased vascularization; also recorded: significantly reduce the vascularization,completely inhibited the growth; also recorded: inhibit the growth,dose dependently inhibited the proliferation,did not display tumoricidal activity,,,
"C[C@H](NC(=O)Cc1cc(F)cc(F)c1)C(=O)N[C@H](C(=O)OC(C)(C)C)c1ccccc1 [DAPT, N-[N-(3,5-difluorophenacetyl-L-alanyl)]-S-phenylglycine t-butyl ester]",without inducing cellular toxicity,significant main effect,dose dependently inhibited,,,decreased vascularization; also recorded: significantly reduce the vascularization,completely inhibited the growth; also recorded: inhibit the growth,dose dependently inhibited the proliferation,did not display tumoricidal activity,appeared to stimulate,no significant difference,inhibit
